Measured values as given in patent publication US20150285760A1, “DIELECTROPHORETIC DEVICE FOR ANALYSIS OF CELL MECHANICS” (DREXEL UNIVERSITY, priority 2014, published 2015).
“Also recorded” adds a separate entry of the source.

Key:
Format in all cases: cell-based
[1] = test system: Endothelial cells; experiment: Atomic force microscopy cell stiffness (elastic modulus) after TNF-α treatment; conditions: cells on 55 kPa micropatterned PA gels
From the text: Atomic force microscopy (AFM, Bioscope DAFM-2X, Veeco) was used to validate DEP device 100 cell stiffness measurements (elastic modulus). A silicon nitride cantilever with 1 μm spherical tip (196 μm long, 23 μm wide, 600 nm thick, spring constant 0.06 N/m, Novascan) was used to indent each measured cell at three distinct locations. Elastic modulus was estimated by fitting the first 200 nm of the indentation curves to a Hertz model (Solon et al., “Fibroblast adaptation and stiffness matching to soft elastic substrates,” Biophys. J., vol. […], pages 4453-4461, 2007). Three measurements per cell were averaged and defined as the cell stiffness. At least six cells for each cell condition or cell type were measured.
Endothelial cells were cultured for 24 hours on micropatterned PA gels with stiffness of 55 kPa using 25 μm fibronectin circles as the microspots 8 to allow focal adhesion formation. The micropatterned PA gel was used in a DEP device 100 of the present invention provided with a microfluidic chamber 14. The quadrupole electrodes 4 were lowered with a single cell aligned within the cage of each quadrupole electrode 4. TNF-α was introduced to the microfluidic chamber 14 to expose the cells thereto. Cell stiffness or cell elastic modulus of the endothelial cell after TNF-α treatment was measured using AFM.

[2] = test system: porcine aortic endothelial cells; experiment: DEP device cell deformation (centroid movement) of adhered cells
Experimental: (§1) Cells were released from tissue culture dishes with trypsin, seeded onto micropatterned PA gels, and 30 minutes was allowed for the cells to attach to the microspots 8. The medium was replaced and the PA gel was washed to remove unattached cells. Cells were then incubated on the micropatterned PA gels for 16-24 hours prior to taking measurements. Before the measurements, the cells were transferred into serum-free CO2-independent medium (Invitrogen™). In some samples, the actin cytoskeleton was disrupted with 200 nM cytochalasin D (Sigma Aldrich) for 15 minutes at room temperature in serum-free CO2-independent medium.
A micropatterned single cell array adhered to a PA gel was mounted on an inverted Olympus IX81 fluorescent microscope. The quadrupole DEP device 100 was attached to a micromanipulator (Eppendorf), and the electrodes were centered and lowered over a single adhered cell within approximately ˜10 μm of the cell. Electrical potential was applied using a function generator (BK Precision 3011B) set to 20 Vpp, 1 MHz. The positive function generator lead was diverted into two separate lines, each going to a resistance decade box, before connecting to diagonally opposing device electrodes as in FIG. 2D. With no extra resistance applied, both electrodes received the same voltage. Increasing resistance to one electrode decreased voltage to that electrode and therefore changed the magnitude of the DEP force as well as the force direction. […]
Bright-field images were taken every 0.5 seconds throughout each measurement. […] Cell deformation was quantified by measuring the distance between cell body centroid and the lower left corner of the cropped image. […]
(§2) Adhered porcine aortic endothelial cells were treated with cytochalasin D to determine the stiffness changes induced by cytochalasin D using the DEP device 100 of the present invention. […] The calculated cell elastic modulus in cytochalasin treated cells was about 0.3 kPa, while the cell elastic modulus in the untreated cells was calculated to be about […] (FIG. 10C).

[3] = test system: porcine aortic endothelial cells; experiment: Atomic force microscopy cell stiffness (elastic modulus), cytochalasin D treatment; conditions: 200 nM cytochalasin D for 15 minutes
Experimental: as §1
Atomic force microscopy (AFM, Bioscope DAFM-2X, Veeco) was used to validate DEP device 100 cell stiffness measurements (elastic modulus). A silicon nitride cantilever with 1 μm spherical tip (196 μm long, 23 μm wide, 600 nm thick, spring constant 0.06 N/m, Novascan) was used to indent each measured cell at three distinct locations. […] At least six cells for each cell condition or cell type were measured.
as §2

Row | Molecule | endothelial cell stiffness / elastic modulus (AFM), change compared with untreated cells [1] | cell centroid movement / deformation under dielectrophoretic force ([2]; 200 nM cytochalasin D for 15 minutes, compared with untreated adhered cells under the same DEP force) | cell centroid restoration to the center position ([2]; 200 nM cytochalasin D for 15 minutes, compared with untreated cells) | cell stiffness (DEP device) ([2]; cytochalasin D treatment, three different DEP forces) | calculated cell elastic modulus (AFM) [3] | cell stiffness / cell modulus (AFM), change compared with untreated cells [3]
1 | TNF-α | Increased; also recorded: higher |  |  |  |  | 
2 | C=C1[C@@H](C)[C@H]2[C@H](Cc3ccccc3)NC(=O)[C@]23[C@H](OC(C)=O)/C=C/[C@@](C)(O)C(=O)[C@@H](C)C/C=C/[C@H]3[C@@H]1O [cytochalasin D] |  | Untreated endothelial cells showed centroid deformations consistently smaller than treated endothelia cells; also recorded: increased | slower | decreases cell stiffness | about 0.3 kPa | decreased the stiffness; also recorded: lower
